Experimental data published in US11020457B2, “Compositions and methods for protecting the kidney from ischemia reperfusion injury” (University of Virginia Patent Foundation, priority 2013, dated 2021).
Entries after “also recorded” stand apart in the source; their conditions may differ.

Columns and labels:
[1] = system: iron loaded bone marrow macrophages; conditions: hepcidin pretreatment; cited from earlier work
[2] = system: hepcidin knockout mice (HAMP−/−); experiment: Mild renal IRI in HAMP-/- mice: plasma creatinine, histology, NGAL; assay type: in vivo; conditions: for plasma creatinine: HAMP-/- mice, single 50 μg bolus of hepcidin 24 hours before 24 min ischemia, 24 hours reperfusion, p<0.0007; for renal histology (H&E): hepcidin treated HAMP-/- IRI mice
Method: (§1) All experiments were performed in accordance with the National Institutes of Health and Institutional Animal Care and Use Guidelines. The Animal Care and Use Committee of the University of Virginia approved all procedures and protocols. C57BL/6 mice from the Jackson Laboratory and hepcidin knockout mice (HAMP−/−), a kind gift from Dr Cindy Roy (John Hopkins University) were used in this study. All experiments were performed on 8-10 weeks old male mice. Kidney ischemia-reperfusion surgery was performed as previously reported (44). The core temperature of the mice was maintained between 34° C. and 36° C. using a heating pad. After anesthetizing the mice (ketamine, 12 mg/ml; atropine, 0.48 mg/ml; xylazine, 24 mg/ml; […] mixture administered per 20 g body weight), bilateral flank incisions were made, both renal pedicles were exposed, and cross-clamped for 26 minutes (severe I/R injury) or 24 minutes (mild I/R injury). After the determined ischemia, clamps were removed, and kidneys were allowed to reperfuse for 24 hours. Ambient postoperative air temperature was maintained between 30° C. and 32° C. until mice had fully recovered. Sham-operated animals underwent bilateral flank incisions without clamping of renal pedicles. Twenty-four hours later, mice were euthanized, and tissues were harvested.
Renal function was determined by measurement of plasma creatinine, determined using a modified Jaffe colorimetric assay (44).
Kidneys were fixed in buffered formalin for 48 h, embedded in paraffin, sectioned (3-μm thickness), and stained with hematoxylin and eosin (H&E). The extent of acute tubular necrosis (ATN) following IRI was assessed using H&E stained kidney sections. An investigator blinded to the sample identities was used for these analyses to have an unbiased approach.
(§2) For RNA isolation, frozen tissues were re-suspended in RLT buffer (Qiagen Inc, Valencia, Calif.) and homogenized using TissueLyser system (Qiagen Inc, Valencia, Calif.). Total RNA from tissue homogenate was purified using RNAeasy mini kit (Qiagen Inc, Valencia, Calif.) following manufacturers instructions. 1 μg of RNA was used to synthesize cDNA using the iScript cDNA synthesis kit (Bio-Rad). The cDNA template was mixed with iTAQ SYBR green universal super mix (Bio-Rad) and quantitative PCR was carried out on CFX Connect system (Bio-Rad). Predesigned primers for Caspase-3 and Bcl-2 were purchased from Bio-rad. Glyceraldehyde-3-phosphate dehydrogenase (GAPDH) was amplified in parallel and used as the reference gene in quantification. Data is expressed as the relative gene expression and was calculated using the 2 (−ρρC(T)) method.
Given the significance of hepcidin-mediated ferroportin regulation in preventing renal IRI, we hypothesized that genetic hepcidin deficiency would aggravate IRI. […] There was no significant rise in plasma creatinine after mild IRI in the WT mice and sham operated HAMP^−/− mice (FIG. 6a). […] Renal histology further corroborated the deleterious effect of hepcidin deficiency in AKI. There were higher numbers of casts and necrotic tubules in the S1, S2 and S3 segments in HAMP^−/− kidneys after IRI (FIG. 6b, and Sup FIG. 3b). To investigate if hepcidin re-constitution could rescue HAMP^−/− mice from IRI, we injected these mice with a single 50 μg bolus of hepcidin, 24 hours before renal ischemia and sacrificed them 24 hours after reperfusion. Strikingly, a single injection of hepcidin afforded an almost complete protection against IRI in the HAMP^−/− mice.

C57BL/6 mice [3] = experiment: Renal IRI in WT mice: flow cytometry of kidney immune cells; assay type: in vivo; conditions: hepcidin vs untreated IRI, p<0.005
Method: as §1, with “Ambient postoperative air temperature was maintained between 30° C. and 32° C. until mice had fully recovered. Sham-operated animals underwent bilateral flank incisions without clamping of renal pedicles. Twenty-four hours later, mice were euthanized, and tissues were harvested.” left out
Single-cell suspensions from the kidney were prepared using standard methods. […] Flow cytometry data were acquired using BD FACSCalibur (BD Biosciences, San Jose, Calif.) with Cytek eight-color flow cytometry upgrade (Cytek Development, Fremont, Calif.) and analyzed with FlowJo software 9.0 (Tree Star Inc., Ashland, Oreg.). […]

C57BL/6 mice [4] = experiment: Renal IRI in WT mice: kidney apoptosis (Caspase-3, Bcl-2 real time PCR, TUNEL); assay type: in vivo; conditions: for TUNEL reactivity in kidney: 26 minutes ischemia, 24 hours reperfusion, FIG. 3e-f; for kidney Caspase-3 expression: hepcidin before IRI, vs IRI p<0.005, vs sham p<0.03, FIG. 3a; for kidney Bcl2 expression: hepcidin-IRI vs untreated IRI, p<0.0008, FIG. 3b
Method: as §1
Animals were divided into three groups, injected intraperitoneally with water and underwent IRI (IRI), injected intraperitoneally with 50-100 μg hepcidin at different time points prior to IRI (Hepcidin-IRI) or were sham operated (Sham). The experimental design is depicted in FIG. 2a.
Apoptotic cells in the kidney were detected by TUNEL assay following the manufacturer's protocol (Roche Diagnostics, Mannheim, Germany). Briefly, PLP-fixed kidney sections were immersed in 3% hydrogen peroxide-methanol (10 minutes) and permeabilized with cold 0.1% Triton-X100 and 0.1% […] (2 minutes). DNA fragments in apoptotic cells were then labeled and identified by terminal transferase dUTP conjugated to fluorescein (Roche Diagnostics) for 60 minutes at room temperature in dark. The apoptotic cells were imaged using a Zeiss Axiovert 200 microscope with Apo Tome (Zeiss).
as §2

Mouse hepcidin 25 (DTNFPICIFCCKCCNNSQCGICCKT; listed as Mus musculus)
LPS-induced IL-6 and TNF alpha production [1]: reduced LPS-induced IL-6 and TNF alpha production | kidney NGAL expression ([2]; HAMP-/- IRI Vs HAMP-/- Hepcidin-IRI, p<0.05): significantly lowered NGAL expression | plasma creatinine [2]: not significantly different than shams and WT mice | plasma creatinine ([2]; listed as hepcidin): significantly lower compared to untreated mice with levels comparable to that in sham-operated mice | renal histology (H&E) [2]: Hepcidin mediated protection of the kidney after IRI | renal histology (H&E) ([2]; listed as hepcidin): remarkable preservation of renal histology | frequency of kidney CD45+ cells (C57BL/6 mice [3]; FIG. 4b-c): reduced renal inflammatory cell infiltration by almost half | kidney neutrophils (C57BL/6 mice [3]; FIG. 4c): significantly reduced IRI-induced renal neutrophil inflammation | TUNEL reactivity in kidney (C57BL/6 mice [4]): reduced by Hepcidin pretreatment | TUNEL reactivity in kidney (C57BL/6 mice [4]; listed as hepcidin): remarkably fewer TUNEL-positive tubules | kidney Caspase-3 expression (C57BL/6 mice [4]): significantly reduced IRI-induced Caspase-3 expression; also recorded: lower transcriptional activation of pro apoptotic Caspase3 | kidney Caspase-3 expression (C57BL/6 mice [4]; listed as hepcidin): even lower than the sham mice | kidney Bcl2 expression (C57BL/6 mice [4]): better preservation of anti apoptotic Bcl2 | kidney Bcl2 expression (C57BL/6 mice [4]; listed as hepcidin): significantly higher expression of Bcl2 compared to untreated IRI mice
